# According to PMC12113998, “Exploring Multivalent Architectures for Binding and Stabilization of N-Acetylgalactosamine 6-Sulfatase” (Molecules, 2025):
# Values joined by “and” are separate entries in the source; they are usually repeats but may differ in a detail not shown here. Equal values may be shown once. Read-outs that look alike come from different tables or passages of the source. Marks after values point to notes of the source that are not given here.
# What was measured:
# [1] = target: T1, N-acetylgalactosamine-6-sulfatase (GALNS) (Homo sapiens, UniProt P34059); test: GALNS inhibition in leukocyte homogenate from healthy donors (4-methylumbelliferyl-β-galactoside-6-sulfate substrate, fluorescence); assay type: biochemical
# T1 construct: Isolated leukocytes were disrupted by sonication; from tissue; host or cells: human leukocytes from healthy donors (sonicated homogenate)
# T1 sequence (P34059 27-522): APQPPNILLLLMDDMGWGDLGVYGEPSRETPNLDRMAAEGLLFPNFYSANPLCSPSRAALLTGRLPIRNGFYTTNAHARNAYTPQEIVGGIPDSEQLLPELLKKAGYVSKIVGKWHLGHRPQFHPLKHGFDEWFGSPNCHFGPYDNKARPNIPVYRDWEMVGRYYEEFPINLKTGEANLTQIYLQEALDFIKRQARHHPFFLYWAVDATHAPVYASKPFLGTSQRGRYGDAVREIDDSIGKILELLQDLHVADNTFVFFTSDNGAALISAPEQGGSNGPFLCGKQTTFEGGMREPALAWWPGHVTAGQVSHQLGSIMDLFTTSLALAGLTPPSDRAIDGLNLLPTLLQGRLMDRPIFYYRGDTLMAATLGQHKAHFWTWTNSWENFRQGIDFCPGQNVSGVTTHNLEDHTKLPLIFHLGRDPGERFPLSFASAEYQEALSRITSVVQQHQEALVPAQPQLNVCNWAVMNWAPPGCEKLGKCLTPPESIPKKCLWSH
# Protocol: A preliminary biological screening of the newly synthesized multivalent compounds at 1 mM inhibitor concentration was performed against GALNS in leukocytes isolated from healthy donors. Enzymatic assays were performed in triplicate by incubating leukocyte homogenate, compound, and substrate (4-methylumbelliferyl-β-galactoside-6-sulfate.Na) in Na-acetate/acetic acid buffer (pH 4.3) at 37 °C for 17 h, followed by the addition of β-galactosidase from Aspergillus oryzae and further incubation to release 4-methylumbelliferone. The fluorescence was measured, and the inhibition percentages were calculated relative to the control. The results are summarized in Table 1, Table 2, Table 3 and Table 4, along with new inhibition data toward GALNS of multivalent inhibitors whose synthesis was reported previously by our group (23, 26, 30, 51, 52–54). For compounds showing poor to negligible inhibitory activity, only the GALNS inhibition percentage at 1 mM was reported.
# Enzymatic assays towards human GALNS in leukocytes isolated from healthy donors.
# All experiments on biological materials were performed in accordance with the ethical standards of the institutional research committee and with the 1964 Helsinki Declaration and its later amendments. In keeping with ethical guidelines, all blood and cell samples were obtained for storage and analysed only after written informed consent of the patients (and/or their family members) was obtained, using a form approved by the local Ethics Committee (Assigned code: Lysolate “Late -onset Lysosomal Storage Disorders (LSDs) in the differential diagnosis of neurodegenerative diseases: development of new diagnostic procedures and focus on potential pharmacological chaperones (PCs).” Project ID code: 16774_bio, 5 May 2020, Comitato Etico Regionale per la Sperimentazione Clinica della Regione Toscana, Area Vasta Centro, Florence, Italy). Control and patient samples were anonymized and used only for research purposes.
# A preliminary biological screening of compounds at 1 mM was performed towards GALNS in leukocytes isolated from healthy donors (controls). Isolated leukocytes were disrupted by sonication, and a micro BCA protein assay kit (Sigma–Aldrich) was used to determine the total protein amount for the enzymatic assay, according to the manufacturer instructions. Enzyme activity was measured by setting the reaction in 0.2 mL tubes and performing the experiments in triplicates as follows. Compound solution (3 µL), 4.29 μg/μL leukocyte homogenate 1:5 (7 μL) and 20 µL of 4-methylumbelliferyl-β-galactoside-6-sulfate.Na substrate solution (6.66mM) in Na-Acetate/acetic acid buffer (0.1 M/0.1 M, pH 4.3) containing 0.1 M NaCl, 0.02% (w/v) NaN3 and 5 mM Pb-acetate were incubated for 17 h at 37 °C. After step one, the tubes were placed on an ice cooler and the reaction was stopped by addition of 5 µL of Na-phosphate buffer (0.9 M, pH 4.3) containing 0.02 % (w/v) of NaN3 and by efficient mixing with vortex. Then, 10 µL of β-galactosidase from Aspergillus oryzae (β-Gal-A-10U) were added to each sample and samples were incubated for 2 h at 37°C. At the end of this period the tubes were placed on an ice cooler and the samples were transferred in a cooled flat –bottomed 96 well plate and the reaction was immediately stopped with 2 00 µL of NaHCO3/Na2CO3 buffer (0.5 M/0.5 M pH 10.7) containing 0.025% (w/v) of Triton X -100. Fluorescence was measured in a SpectraMax M2 microplate reader (Molecular-Devices) using a 365 nm excitation wavelength and a 435 nm emission wavelength. Percentage of GALNS inhibition was given with respect to the control (without compound).
# Experiments were performed in triplicate, and the mean ± S. D. was calculated.
# Figure S52. GALNS activity in the absence Figure S53. GALNS activity in the absence (Ctrl) and presence of scaffold 12 at a 1 mM (Ctrl) and presence of the new multivalent […]
# The corresponding calculated inhibition of the main text) at a 1 mM concentration in […]
# [2] = target: T2, recombinant human GALNS (rhGALNS VIMIZIM®) (Homo sapiens, UniProt P34059); test: IC50 on recombinant human GALNS (rhGALNS VIMIZIM); assay type: biochemical
# T2 construct: purchased BioMarin (VIMIZIM, elosulfase alfa)
# T2 sequence (P34059 27-522): T1 sequence (P34059 27-522)
# Protocol: The promising IC50 values observed for 1 and 36 prompted us to assess their effects on the commercially available wild-type recombinant GALNS (rhGALNS VIMIZIM®). […] Building on these findings, we investigated the potential stabilizing effect of these compounds on the tertiary structure of GALNS through a thermal denaturation study. rhGALNS was preincubated with varying concentrations of the compounds before being subjected to heating at 48 °C for 40 and 60 min. The relative enzyme activity was expressed as the ratio between the activity measured after thermal denaturation at 48 °C and that obtained under physiological conditions at 37 °C.
# The IC 50 values of inhibitors against human GALNS in leukocytes isolated from healthy donors or against recombinant human GALNS (rhGALNS VIMIZIM®) were determined by measuring the initial hydrolysis rate with 4 -methylumbelliferyl-β-galactoside-6-sulfate.Na (6.66 mM) at different concentrations of inhibitors.
# Data obtained were fitted to the following equation using the OriginPro 2021 (Version 2021. OriginLab Corporation, Northampton, MA, USA): where Vi/Vo, represent the ratio between the activity measured in the presence of the inhibitor (Vi) and the activity of the control without the inhibitor (Vo), “x” the inhibitor concentration, Max and Min, the maximal and minimal enzymatic activity observed, respectively. […]
# [3] = target: T1, N-acetylgalactosamine-6-sulfatase (GALNS); set-up: method as in doi:10.1039/C6RA15806D; conditions: cited from earlier work
# [4] = calculated considering 34 as the monovalent reference compound
"rp (relative potency) [1, 4]",IC50 ([1]; human leukocyte extracts) [µM],IC50 [2] [µM],rp (relative potency) ([1]; calculated with respect to the scaffold 38),SMILES,"% Inhibition (1 mM) ([3]; 1 mM inhibitor, human leukocyte extracts)",IC50 ([3]; human leukocyte extracts) [µM],rp/n ([3]; positive MVE as previously reported)
139 ^[b],28 ± 5,30,–,OCC1C(O)C(O)CN1CCCCCCn1cc(COCC(COCc2cn(CCCCCCN3CC(O)C(O)C3CO)nn2)(COCc2cn(CCCCCCN3CC(O)C(O)C3CO)nn2)NCc2cc(CNC(COCc3cn(CCCCCCN4CC(O)C(O)C4CO)nn3)(COCc3cn(CCCCCCN4CC(O)C(O)C4CO)nn3)COCc3cn(CCCCCCN4CC(O)C(O)C4CO)nn3)cc(CNC(COCc3cn(CCCCCCN4CC(O)C(O)C4CO)nn3)(COCc3cn(CCCCCCN4CC(O)C(O)C4CO)nn3)COCc3cn(CCCCCCN4CC(O)C(O)C4CO)nn3)c2)nn1 (stereo not drawn) [Compound 36],–,–,–
83,–,110,1.5,O=C(NC(COCc1cn(CCCCCCN2CC(O)C(O)C2CO)nn1)(COCc1cn(CCCCCCN2CC(O)C(O)C2CO)nn1)COCc1cn(CCCCCCN2CC(O)C(O)C2CO)nn1)c1cc(C(=O)NC(COCc2cn(CCCCCCN3CC(O)C(O)C3CO)nn2)(COCc2cn(CCCCCCN3CC(O)C(O)C3CO)nn2)COCc2cn(CCCCCCN3CC(O)C(O)C3CO)nn2)cc(C(=O)NC(COCc2cn(CCCCCCN3CC(O)C(O)C3CO)nn2)(COCc2cn(CCCCCCN3CC(O)C(O)C3CO)nn2)COCc2cn(CCCCCCN3CC(O)C(O)C3CO)nn2)c1 (stereo not drawn) [Compound 1],94 ^[a] %,47 ± 5,9.2 and 6.5–9.2
